Measured values published in US10093630B2, “Pyrazole compounds and methods of making and using same” (ABIDE THERAPEUTICS, INC., priority 2014, dated 2018).
Read-outs that look alike come from different tables or passages of the source.

What was measured:
Test in all cases: In vitro competitive activity-based protein profiling (gel-based, FP-Rh or HT-01 probe)
Format in all cases: biochemical
MAGL = target: T1, MAGL (Mus musculus, UniProt O35678); conditions: for inhibition at 1 µM: 1 μM inhibitor; for inhibition at 10 µM: 10 μM inhibitor
T1 construct: Proteomes (mouse brain membrane fraction or cell lysates); from tissue; host or cells: mouse brain membrane fraction (or cell lysates, not specified)
T1 sequence (O35678 1-303): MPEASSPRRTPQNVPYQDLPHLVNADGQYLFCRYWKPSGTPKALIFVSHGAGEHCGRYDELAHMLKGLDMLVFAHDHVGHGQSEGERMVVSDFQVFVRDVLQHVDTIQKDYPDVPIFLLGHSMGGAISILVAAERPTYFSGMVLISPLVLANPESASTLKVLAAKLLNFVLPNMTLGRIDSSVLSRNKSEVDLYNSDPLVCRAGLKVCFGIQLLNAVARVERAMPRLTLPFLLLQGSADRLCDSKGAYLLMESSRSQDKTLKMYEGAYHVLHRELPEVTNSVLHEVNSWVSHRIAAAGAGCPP
In short: (§1)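 Steps: inhibitor dilutions + proteome (1.0 mg/mL), 30 min, 37° C; add FP-Rh or HT-01 (50 μM DMSO stock), 30 min, 37° C; quench in SDS buffer; SDS-PAGE; gel imaging; band densitometry.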

ABHD6 = target: T2, ABHD6 (Mus musculus, UniProt Q8R2Y0); conditions: for inhibition at 1 µM: 1 μM inhibitor, read-out: % Inhibition at 1 μM, C = ABHD6; for inhibition at 10 µM: 10 μM inhibitor, read-out: % Inhibition at 10 μM, C = ABHD6
T2 construct: Proteomes (mouse brain membrane fraction or cell lysates); from tissue; host or cells: mouse brain membrane fraction (or cell lysates, not specified)
T2 sequence (Q8R2Y0 1-336): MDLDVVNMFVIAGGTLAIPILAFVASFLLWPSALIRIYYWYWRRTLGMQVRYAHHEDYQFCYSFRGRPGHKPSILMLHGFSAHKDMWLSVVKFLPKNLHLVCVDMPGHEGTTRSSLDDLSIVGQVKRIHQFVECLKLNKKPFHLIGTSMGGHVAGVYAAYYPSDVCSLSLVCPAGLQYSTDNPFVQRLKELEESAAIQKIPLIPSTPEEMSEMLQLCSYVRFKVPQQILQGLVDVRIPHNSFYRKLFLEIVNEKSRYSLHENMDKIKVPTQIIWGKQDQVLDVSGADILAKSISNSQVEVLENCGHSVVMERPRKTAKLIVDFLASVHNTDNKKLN
In short: as §1

FAAH = target: T3, FAAH (Mus musculus, UniProt O08914); conditions: for inhibition at 1 µM: 1 μM inhibitor, read-out: % Inhibition at 1 μM, B = FAAH; for inhibition at 10 µM: 10 μM inhibitor, read-out: % Inhibition at 10 μM, B = FAAH
T3 construct: Proteomes (mouse brain membrane fraction or cell lysates); from tissue; host or cells: mouse brain membrane fraction (or cell lysates, not specified)
T3 sequence (O08914 1-579): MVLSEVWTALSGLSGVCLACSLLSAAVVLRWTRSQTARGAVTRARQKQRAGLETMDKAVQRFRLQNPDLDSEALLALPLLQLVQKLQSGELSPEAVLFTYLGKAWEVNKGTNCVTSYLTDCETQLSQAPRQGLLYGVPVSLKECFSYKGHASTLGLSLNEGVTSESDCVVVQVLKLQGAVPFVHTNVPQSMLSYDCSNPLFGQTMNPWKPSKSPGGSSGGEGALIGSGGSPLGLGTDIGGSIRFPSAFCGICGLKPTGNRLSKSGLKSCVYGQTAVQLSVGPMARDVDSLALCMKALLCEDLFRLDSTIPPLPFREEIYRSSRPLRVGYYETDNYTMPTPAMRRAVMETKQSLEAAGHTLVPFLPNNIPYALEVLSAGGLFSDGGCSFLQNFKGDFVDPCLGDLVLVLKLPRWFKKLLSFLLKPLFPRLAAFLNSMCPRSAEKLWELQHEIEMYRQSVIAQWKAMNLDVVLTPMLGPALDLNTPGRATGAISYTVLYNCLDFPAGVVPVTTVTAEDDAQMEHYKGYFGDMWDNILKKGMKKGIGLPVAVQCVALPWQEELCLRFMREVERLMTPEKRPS
In short: as §1

PLA2G7 = target: T4, PLA2G7 (Mus musculus, UniProt Q60963); conditions: for inhibition at 1 µM: 1 μM inhibitor, read-out: % Inhibition at 1 μM, D = PLA2G7; for inhibition at 10 µM: 10 μM inhibitor, read-out: % Inhibition at 10 μM, D = PLA2G7; for IC50: mouse brain membrane fraction or cell lysates, 30 min preincubation at 37° C.
T4 construct: Proteomes (mouse brain membrane fraction or cell lysates); from tissue; host or cells: mouse brain membrane fraction (or cell lysates, not specified)
T4 sequence (Q60963 22-440): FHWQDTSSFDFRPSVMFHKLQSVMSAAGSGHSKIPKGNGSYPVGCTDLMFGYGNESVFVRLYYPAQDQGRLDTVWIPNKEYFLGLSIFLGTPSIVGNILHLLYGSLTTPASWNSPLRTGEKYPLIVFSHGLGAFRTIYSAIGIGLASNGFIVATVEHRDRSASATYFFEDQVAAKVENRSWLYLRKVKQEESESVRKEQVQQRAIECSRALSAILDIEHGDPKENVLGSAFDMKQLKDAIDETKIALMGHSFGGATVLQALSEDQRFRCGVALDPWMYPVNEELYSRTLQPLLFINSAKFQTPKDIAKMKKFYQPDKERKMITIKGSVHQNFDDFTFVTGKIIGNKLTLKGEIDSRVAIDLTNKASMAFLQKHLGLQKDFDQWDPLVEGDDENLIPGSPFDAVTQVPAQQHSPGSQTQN
In short: as §1

[1] = mouse brain membrane fraction or cell lysates, 30 min preincubation at 37° C., read-out: Mouse (IC50 value, nM) ABHD6
[2] = mouse brain membrane fraction or cell lysates, 30 min preincubation at 37° C., read-out: Mouse (IC50 value, nM) MAGL
[3] = mouse brain membrane fraction or cell lysates, 30 min preincubation at 37° C., read-out: Mouse (IC50 value, nM) FAAH

| inhibition at 1 µM (MAGL) [%] | inhibition at 10 µM (MAGL) [%] | inhibition at 1 µM (ABHD6) [%] | inhibition at 10 µM (ABHD6) [%] | inhibition at 1 µM (FAAH) [%] | inhibition at 10 µM (FAAH) [%] | inhibition at 1 µM (PLA2G7) [%] | inhibition at 10 µM (PLA2G7) [%] | IC50 (ABHD6; [1]) [nM] | IC50 (MAGL; [2]) [nM] | IC50 (FAAH; [3]) [nM] | IC50 (PLA2G7) [nM] | inhibition at 1 µM (MAGL; gel-based competitive ABPP) [%] | inhibition at 1 µM (ABHD6; gel-based competitive ABPP) [%] | inhibition at 1 µM (FAAH; gel-based competitive ABPP) [%] | inhibition at 1 µM (PLA2G7; gel-based competitive ABPP) [%] | SMILES | IC50 (MAGL) [nM] | IC50 (ABHD6) [nM] | IC50 (FAAH) [nM] |
| --- | --- | --- | --- | --- | --- | --- | --- | --- | --- | --- | --- | --- | --- | --- | --- | --- | --- | --- | --- |
| < 25 | > 75 | < 25 | < 25 | < 25 | < 25 | < 25 | < 25 |  |  |  |  |  |  |  |  | N#Cc1cnn(C(=O)Nc2ccc3ccccc3c2)c1 [Example 42, 4-Cyano-N-(naphthalen-2-yl)-1H-pyrazole-1-carboxamide] |  |  |  |
| < 25 | > 75 | > 75 | > 75 | < 25 | < 25 | < 25 | 25 to 75 | 100 to 1000 |  |  |  |  |  |  |  | COc1ccccc1-c1ccc(-c2cnn(C(=O)N3CCCC3)c2)cc1 [Example 107, (4-(2′-Methoxy-[1,1′-biphenyl]-4-yl)-1H-pyrazol-1-yl)(pyrrolidin-1-yl)methanone] |  |  |  |
| > 75 | > 75 | > 75 | > 75 | > 75 | > 75 | < 25 | > 75 | 100 to 1000 | 100 to 1000 | < 100 |  |  |  |  |  | Cc1cc(-c2ccccc2)ccc1CN1CCN(C(=O)n2cc(C(=O)N3CCC3)cn2)CC1 [Example 93, Azetidin-1-yl(1-(4-((3-methyl-[1,1′-biphenyl]-4-yl)methyl)piperazine-1-carbonyl)-1H-pyrazol-4-yl)methanone] |  |  |  |
| > 75 | > 75 | > 75 | > 75 | 25 to 75 | > 75 | > 75 | > 75 |  |  |  |  |  |  |  |  | O=C(N1CCN(c2ccccc2N2CCOCC2)CC1)n1cc(C(F)(F)F)cn1 [Example 236, (4-(2-Morpholinophenyl)piperazin-1-yl)(4-(trifluoromethyl)-1H-pyrazol-1-yl)methanone] |  |  |  |
| > 75 | > 75 | > 75 | > 75 | > 75 | > 75 | > 75 | > 75 | < 100 | < 100 | < 100 | < 100 |  |  |  |  | COc1ccc(N2CCN(C(=O)n3cc(C(F)(F)F)cn3)CC2)cc1 [Example 235, (4-(4-Methoxyphenyl)piperazin-1-yl)(4-(trifluoromethyl)-1H-pyrazol-1-yl)methanone] |  |  |  |
|  |  |  |  |  |  |  |  | 100 to 1000 | 100 to 1000 | < 100 | > 1000 | > 75 | > 75 | > 75 | < 25 | CCN(Cc1cccc(C)c1)C(=O)n1cc(C#N)cn1 [Example 246, 4-Cyano-N-ethyl-N-(3-methylbenzyl)-1H-pyrazole-1-carboxamide] |  |  |  |
| > 75 | > 75 | > 75 | > 75 | > 75 | > 75 | > 75 | > 75 | < 100 | < 100 | < 100 | < 100 |  |  |  |  | O=C(N1CCN(c2ccccc2Cl)CC1)n1cc(C(F)(F)F)cn1 [Example 227, (4-(2-Chlorophenyl)piperazin-1-yl)(4-(trifluoromethyl)-1H-pyrazol-1-yl)methanone] |  |  |  |
| < 25 | > 75 | < 25 | > 75 | > 75 | > 75 | < 25 | > 75 |  |  |  |  |  |  |  |  | N#Cc1cnn(C(=O)N2CCCC2)c1 [Example 203, 1-(Pyrrolidine-1-carbonyl)-1H-pyrazole-4-carbonitrile] |  |  |  |
| 25 to 75 |  | 25 to 75 |  | > 75 |  | < 25 |  | > 1000 | > 1000 | < 100 | > 1000 |  |  |  |  | CCN(Cc1cccc(Cl)c1)C(=O)n1cc(C(F)(F)F)cn1 [Example 244, N-(3-Chlorobenzyl)-N-ethyl-4-(trifluoromethyl)-1H-pyrazole-1-carboxamide] |  |  |  |
| 25 to 75 | > 75 | 25 to 75 | > 75 | < 25 | > 75 | < 25 | > 75 |  |  |  |  |  |  |  |  | O=C(c1ccccc1)N1CCCN(C(=O)n2cc(Cl)cn2)CC1 [Example 192, (4-Benzoyl-1,4-diazepan-1-yl)(4-chloro-1H-pyrazol-1-yl)methanone] |  |  |  |
| > 75 | > 75 | > 75 | > 75 | > 75 | > 75 | > 75 | > 75 |  |  |  |  |  |  |  |  | N#Cc1cnn(C(=O)N2CCCCC2)c1 [Example 3, 1-(Piperidine-1-carbonyl)-1H-pyrazole-4-carbonitrile] |  |  |  |
| > 75 | > 75 | > 75 | > 75 | > 75 | > 75 | > 75 | > 75 |  |  |  |  |  |  |  |  | Cc1ccc(N2CCN(C(=O)n3cc(C(F)(F)F)cn3)CC2)cc1 [Example 232, (4-p-Tolylpiperazin-1-yl)(4-(trifluoromethyl)-1H-pyrazol-1-yl)methanone] |  |  |  |

| SMILES | inhibition at 1 µM (MAGL) [%] | inhibition at 10 µM (MAGL) [%] | inhibition at 1 µM (ABHD6) [%] | inhibition at 10 µM (ABHD6) [%] | inhibition at 1 µM (FAAH) [%] | inhibition at 10 µM (FAAH) [%] | inhibition at 1 µM (PLA2G7) [%] | inhibition at 10 µM (PLA2G7) [%] | IC50 (ABHD6; [1]) [nM] | IC50 (MAGL; [2]) [nM] | IC50 (FAAH; [3]) [nM] | IC50 (PLA2G7) [nM] | inhibition at 1 µM (MAGL; gel-based competitive ABPP) [%] | inhibition at 1 µM (ABHD6; gel-based competitive ABPP) [%] | inhibition at 1 µM (FAAH; gel-based competitive ABPP) [%] | inhibition at 1 µM (PLA2G7; gel-based competitive ABPP) [%] | IC50 (MAGL) [nM] | IC50 (ABHD6) [nM] | IC50 (FAAH) [nM] |
| --- | --- | --- | --- | --- | --- | --- | --- | --- | --- | --- | --- | --- | --- | --- | --- | --- | --- | --- | --- |
| O=C(N1CCN(Cc2ccccc2)CC1)n1cc(Cl)cn1 [Example 186, (4-Benzylpiperazin-1-yl)(4-chloro-1H-pyrazol-1-yl)methanone] | > 75 | > 75 | > 75 | > 75 | > 75 | > 75 | < 25 | > 75 |  |  |  | > 1000 |  |  |  |  | < 100 | < 100 | 100 to 1000 |
